Laboratory results published in patent US20170071975A1, “COMPOSITIONS AND METHODS FOR TREATING DEPRESSIVE DISORDERS” (Steerwasher, LLC, priority 2014, published 2017).

Experiments:
[1] = system: patients with treatment-resistant depression; experiment: Same crossover trial; Quick Inventory of Depressive Symptoms Self Report (QIDS-SR) scale; format: in vivo, human; settings: Table 4
Procedure: (§1) Primary endpoint was the change on the 21-point Hamilton Depression Rating Scale (HRDS).
(§2) This study was designed as a randomized, placebo-controlled crossover pilot clinical trial. […] The order of the session was randomly assigned by a random number generator. Other than the gas mixture administered, both sessions were indistinguishable from each other in setting, setup, and monitoring.
(§3) The gas mix was administered via a standard anesthesia facemask through tubing connected to an anesthesia machine. A small sample connector line was inserted into the facemask allowing the measurement of inhaled and exhaled gas concentrations. Total gas flow was between 4-8 L/min. Patients were monitored during and after the treatment according to American Society of Anesthesiologists standard which includes continuous 3-lead ECG, pulsoximetry, non-invasive blood pressure and end-tidal CO2 under the supervision of an attending-level anesthesiologists. After the one-hour treatment session, patients were transferred and monitored for 2 hours. A study team physician determined if the patients met criteria for discharge before patients were discharged.
(§4) Outcomes were assessed at six time points for each patient (three per session; two sessions): within each session at baseline, 2 hours, and 24 hours after treatment. Primary study endpoint was the change on the 21-point Hamilton Depression Rating Scale (HDRS). Secondary endpoints included a change on the Quick Inventory of Depressive Symptoms Self Report (QIDS-SR) scale. At baseline, the Brief Psychiatric Rating Scale (BPRS) was also administered. Psychiatric safety endpoints were assessed via standard scales for psychosis and the Columbia suicide scale. Other safety endpoints included cardiovascular, respiratory and central nervous system adverse events determined by hemodynamic and respiratory monitoring.

[2] = system: patients with treatment-resistant depression; set-up: species or system human; settings: in vivo
Procedure: as §3
as §4, with “monitoring. Nitrous oxide-induced inactivation of vitamin B12 was determined by measurement of plasma total homocysteine before and after treatment.” for “monitoring.”

[3] = system: patients with treatment-resistant depression; experiment: Blinded, randomized placebo-controlled crossover trial; 21-point Hamilton Depression Rating Scale (HDRS/HRDS); format: in vivo, human
Excerpt: as §1, §2
Patients were recruited from an existing database of treatment-resistant depression patients administered by the Washington University Department of Psychiatry as well as from the “Volunteers for Health” patient pool within the Washington University School of Medicine. […] Patients were instructed not to suspend their standard of care treatment for major depression. Patients were required to maintain a stable medication regiment without changes for 4 weeks prior to initiation of the study and continue on the same dose throughout.
as §3, §4
The primary outcome was analyzed with a mixed effects repeated measures linear model that included three interactions (treatment; time; randomization group) using restricted maximum likelihood estimation.
For the analysis of paired data, such as the levels of HRDS, we used the Wilcoxon signed-rank test. To compare the rates of treatment responses and remissions between the two treatments and using the paired data structure, an exact binomial test was used (and corresponding odds ratios calculated) as the number of discordant pairs was <20. Data are presented as mean±SD or 95% confidence intervals, or as median and interquartile range. Because this is the first in-human patient pilot study, no prior knowledge existed for adequate sample size determination. […] JMP Pro 11.1 and SAS 9.3 (SAS Institute, Cary, N.C.), as well as Prism 6.04 (GraphPad Software, Inc., La Jolla, Calif.) were used for the statistical analysis and graphing.

[4] = 24 hours after treatment, HRDS levels

Compound: [N-]=[N+]=O [nitrous oxide]
- response on the QIDS scale: change 0 (percent) [1]: 50%
- response on the QIDS scale: change of 1 level, first arrow (P00003, presumably worse) (percent) [1]: 10%
- response on the QIDS scale: change of 1 level, second arrow (P00004, presumably better) (percent) [1]: 15%
- response on the QIDS scale: change of 2 levels, second arrow (P00004, presumably better) (percent) [1]: 25%
- Adverse Event: Anxiety ([2]; human, 1 h): 2
- Adverse Event: Anxiety (percent) ([2]; human, 1 h): (10%)
- Adverse Event: Claustrophobia ([2]; human, 1 h): 1 no.
- Adverse Event: Claustrophobia (percent) ([2]; human, 1 h): (5%)
- Adverse Event: Dizziness/Lightheadedness ([2]; human, 1 h): 1 no.
- Adverse Event: Dizziness/Lightheadedness (percent) ([2]; human, 1 h): (5%)
- Adverse Event: Headache ([2]; human, 1 h): 2 no.
- Adverse Event: Headache (percent) ([2]; human, 1 h): (10%)
- Adverse Event: Hypercapnia ([2]; human, 1 h): 0
- Adverse Event: Hyperventilation ([2]; human, 1 h): 1 no.
- Adverse Event: Hyperventilation (percent) ([2]; human, 1 h): (5%)
- Adverse Event: Nausea and vomiting ([2]; human, 1 h): 3 no.
- Adverse Event: Nausea and vomiting (percent) ([2]; human, 1 h): (15%)
- Adverse Event: Numbness/Paresthesia ([2]; human, 1 h): 2
- Adverse Event: Numbness/Paresthesia (percent) ([2]; human, 1 h): (10%)
- Adverse Event: Panic Attack ([2]; human, 1 h): 1
- Adverse Event: Panic Attack (percent) ([2]; human, 1 h): (5%)
- Adverse Event: Regurgitation ([2]; human, 1 h): 1 no.
- Adverse Event: Regurgitation (percent) ([2]; human, 1 h): (5%)
- course of adverse events [2]: temporary and resolved shortly after completion
- patients in whom the treatment had to be interrupted or discontinued due to adverse events [2]: five
- patients who completed the full 60-minute treatment [2]: Fifteen
- psychotomimetic side effects (delusion, hallucination) [2]: appeared to be devoid of psychotomimetic side effects
- Change in Level of Depression Severity: Better, 1 level (patients) [3, 4]: 7/20
- Change in Level of Depression Severity: Better, 1 level (percent) [3, 4]: (35%)
- Change in Level of Depression Severity: Better, 2 levels (patients) [3, 4]: 3/20
- Change in Level of Depression Severity: Better, 2 levels (percent) [3, 4]: (15%)
- Change in Level of Depression Severity: Better, 3 levels (patients) [3, 4]: 3/20
- Change in Level of Depression Severity: Better, 3 levels (percent) [3, 4]: (15%)
- Change in Level of Depression Severity: Better, 4 levels (patients) [3, 4]: 1/20
- Change in Level of Depression Severity: Better, 4 levels (percent) [3, 4]: (5%)
- Change in Level of Depression Severity: Neutral, 0 (patients) [3, 4]: 6/20
- Change in Level of Depression Severity: Neutral, 0 (percent) [3, 4]: (30%)
- Change in Level of Depression Severity: Worse, 1 level (patients) [3, 4]: 0
- mean change in HDRS score ([3]; 24 hours after treatment, full cohort (20 patients), 50% nitrous oxide/50% oxygen for 1 hour, compared to baseline and placebo): −5.5 points
- full remission rate (HRDS <7 points) ([3]; 24 hours, 20 patients): 15%
- treatment response rate (reduction >50% on the HRDS) ([3]; 24 hours, 20 patients): 20%
- mean reduction of HRDS ([3]; 24 hours, first treatment session only (10 patients who received nitrous oxide first)): −8.6 points
- patients with at least a 2-level improvement of depression severity on the HRDS ([3]; 24 hours, out of twenty patients, five severity levels): 7 patients
- patients with at least a 2-level improvement of depression severity on the HRDS, percent ([3]; 24 hours, twenty patients): 35%
- duration of antidepressant effects ([3]; after a single, one-hour treatment with 50% nitrous oxide): at least 24 hours
- mean reduction in depressive symptoms on HRDS ([3]; full cohort): 5.5 points
- mean reduction in depressive symptoms on HRDS ([3]; ten patients who received the nitrous oxide treatment first): 8.6 points
